The values that follow come from patent EP1683523A1, “2-Phenylquinoxalines as inhibitors for MPP1” (MAX-PLANCK-GESELLSCHAFT ZUR FÖRDERUNG DER WISSENSCHAFTEN …, priority 2005, dated 2006).

pEC50, pIC50: −log10 of the molar value.

The target in assay [1] is T1, His-tagged human MPP1 construct (Aa 1-533) (Homo sapiens, UniProt Q96Q89).
T1 construct: a His-tagged human MPP1 construct (Aa 1-533); His
T1 sequence (Q96Q89 1-533): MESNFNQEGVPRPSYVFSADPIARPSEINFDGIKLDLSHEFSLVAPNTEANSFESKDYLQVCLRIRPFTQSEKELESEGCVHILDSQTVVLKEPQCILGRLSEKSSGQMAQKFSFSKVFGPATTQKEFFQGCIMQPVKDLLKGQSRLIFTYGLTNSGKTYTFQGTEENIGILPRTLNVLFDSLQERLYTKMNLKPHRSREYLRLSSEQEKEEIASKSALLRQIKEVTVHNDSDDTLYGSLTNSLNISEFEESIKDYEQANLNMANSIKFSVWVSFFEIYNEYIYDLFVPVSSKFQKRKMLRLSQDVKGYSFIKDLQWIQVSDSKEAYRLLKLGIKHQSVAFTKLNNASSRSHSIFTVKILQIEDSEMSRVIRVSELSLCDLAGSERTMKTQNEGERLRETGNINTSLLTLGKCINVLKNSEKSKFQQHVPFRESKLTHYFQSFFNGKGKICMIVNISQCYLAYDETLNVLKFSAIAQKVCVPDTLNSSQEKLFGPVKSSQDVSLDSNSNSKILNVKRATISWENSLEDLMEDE
The experiment in a line: Malachite-green based in vitro microtubule-stimulated ATPase assay (potency study). The format is biochemical. As to conditions: microtubule-stimulated ATPase activity, DMSO as solvent control, Fig. 1. How it is done:
The 2-phenylquinoxaline derivatives were measured be means of a malachite-green based (Itaya K. and UI, M. (1966), A new micromethod for the colorimetric determination of inorganic phosphate; Clin. Chim. Acta, 14: 362 - 366) in vitro ATPase assay. For this assay the microtubule-stimulated ATPase activity of a His-tagged human MPP1 construct (Aa 1-533) in the presence of small molecules or DMSO as a solvent control were measured. These studies are done in 384-well plates in which individual compounds of a large compound collection are transferred into each well using a liquid handling robot.
The potency of 5-chloro-2-(3,4-dichlorophenyl)-7-(trifluoromethyl)quinoxaline as a representative example of the 2-phenylquinoxaline derivatives of general formula (I) was determined by measuring MPP1's microtubule-stimulated ATPase activity in vitro in the presence of 5-chloro-2-(3,4-dichlorophenyl)-7-(trifluoromethyl)-quinoxaline or DMSO as a solvent control. For these studies a malachite green assay which allows the quantification of free phosphate (Pi) in solution was used.

The subject of assay [2] is BSC-1 (African green monkey) cells. The experiment in a line: Cellular phenotype: count of binucleated cells. The format is cell-based. Particulars: Chlorocebus sabaeus; synchronized BSC-1 cells, released from thymidine-block for three hours, treated for 18 hours; at least 200 cells counted per concentration; read-out: EC50, induction of a binucleate phenotype in BSC-1. How it is done:
Concerning the study the function of MPP1 in living cells, it was tested whether 5-chloro-2-(3,4-dichlorophenyl)-7-(trifluoromethyl)quinoxaline induces a phenotype similar to the one obtained by RNAi-mediated depletion of MPP1. For these studies we treated synchronized BSC-1 (African green monkey) cells with 5-chloro-2-(3,4-dichlorophenyl)-7-(trifluoromethyl)quinoxaline or DMSO as a solvent control.
BSC-1 cells were released from thymidine-block for three hours and then treated with 50µM or the indicated concentrations of 5-chloro-2-(3,4-dichlorophenyl)-7-(trifluoromethyl)quinoxaline for 18 hours. Treated cells were fixed with formaledehyde-containing buffer and the DNA and microtubule cytoskeleton were visualized with Hoechst and FITC-labled anti-tubulin antibody, respectively. The number of binucleated cells was determined by manual counting of at least 200 cells per concentration.

In assay [3] the test system is cellular processes known to be independent of MPP1 function. Description: Specificity in vivo: effect on cellular processes independent of MPP1. As to conditions: golgi/lysosome localization, actin/microtubule cytoskeleton in interphase, protein synthesis, S to M-phase cell cycle progression, wound healing. Type of assay: cell-based. An excerpt:
For the specificity in vivo studies, the effect of 5-chloro-2-(3,4-dichlorophenyl)-7-(trifluoromethyl)quinoxaline on cellular processes known to be independent of MPP1 function, e.g. golgi/lysosome localization, actin/microtubule cytoskeleton in interphase, protein synthesis, S to M-phase cell cycle progression, and wound healing was investigated.

The next assay deals with Hela S3 cells. Description: Cellular phenotype: binucleate phenotype. The format is cell-based. Particulars: Fig. 3.
The next assay addresses T2, Mklp1 (Homo sapiens, UniProt Q02241).
T2 sequence (Q02241 1-960): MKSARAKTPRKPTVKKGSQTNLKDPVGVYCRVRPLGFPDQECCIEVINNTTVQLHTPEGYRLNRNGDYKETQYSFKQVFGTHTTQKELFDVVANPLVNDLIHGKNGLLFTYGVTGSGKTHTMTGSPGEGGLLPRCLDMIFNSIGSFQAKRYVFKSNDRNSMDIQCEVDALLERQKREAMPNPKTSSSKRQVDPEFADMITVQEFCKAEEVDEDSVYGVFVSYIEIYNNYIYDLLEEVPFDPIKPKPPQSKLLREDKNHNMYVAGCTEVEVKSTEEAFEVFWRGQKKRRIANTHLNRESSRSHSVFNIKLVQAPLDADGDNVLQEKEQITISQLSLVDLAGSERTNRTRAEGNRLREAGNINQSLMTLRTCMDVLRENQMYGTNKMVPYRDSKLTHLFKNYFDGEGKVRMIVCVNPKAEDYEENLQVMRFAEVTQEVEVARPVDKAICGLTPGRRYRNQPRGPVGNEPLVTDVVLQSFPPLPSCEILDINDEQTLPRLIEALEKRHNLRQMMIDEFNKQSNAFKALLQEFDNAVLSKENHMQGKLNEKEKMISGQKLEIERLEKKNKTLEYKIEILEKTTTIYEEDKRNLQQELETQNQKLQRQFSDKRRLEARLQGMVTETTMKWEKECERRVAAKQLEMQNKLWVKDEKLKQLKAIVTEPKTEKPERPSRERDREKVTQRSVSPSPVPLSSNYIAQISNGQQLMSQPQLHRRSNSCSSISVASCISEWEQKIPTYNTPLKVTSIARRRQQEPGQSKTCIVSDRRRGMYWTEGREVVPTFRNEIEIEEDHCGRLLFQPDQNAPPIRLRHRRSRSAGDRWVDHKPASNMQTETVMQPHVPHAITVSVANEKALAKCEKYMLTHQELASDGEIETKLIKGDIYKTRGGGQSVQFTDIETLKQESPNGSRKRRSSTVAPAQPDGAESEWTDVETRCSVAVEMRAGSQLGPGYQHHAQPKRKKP
Description: Malachite-green in vitro microtubule-stimulated ATPase assay (specificity). As to conditions: Fig. 2. Type of assay: biochemical. How it is done:
(§1) The specificity of 5-chloro-2-(3,4-dichlorophenyl)-7-(trifluoromethyl)quinoxaline was determined by measuring its effect on the microtubule-stimulated in vitro ATPase activities of the kinesins Eg5, Kif4, Mklp1, and Mklp2.

For another assay, the target named is T3, Kif4 (Homo sapiens, UniProt O95239).
T3 sequence (O95239 1-1232): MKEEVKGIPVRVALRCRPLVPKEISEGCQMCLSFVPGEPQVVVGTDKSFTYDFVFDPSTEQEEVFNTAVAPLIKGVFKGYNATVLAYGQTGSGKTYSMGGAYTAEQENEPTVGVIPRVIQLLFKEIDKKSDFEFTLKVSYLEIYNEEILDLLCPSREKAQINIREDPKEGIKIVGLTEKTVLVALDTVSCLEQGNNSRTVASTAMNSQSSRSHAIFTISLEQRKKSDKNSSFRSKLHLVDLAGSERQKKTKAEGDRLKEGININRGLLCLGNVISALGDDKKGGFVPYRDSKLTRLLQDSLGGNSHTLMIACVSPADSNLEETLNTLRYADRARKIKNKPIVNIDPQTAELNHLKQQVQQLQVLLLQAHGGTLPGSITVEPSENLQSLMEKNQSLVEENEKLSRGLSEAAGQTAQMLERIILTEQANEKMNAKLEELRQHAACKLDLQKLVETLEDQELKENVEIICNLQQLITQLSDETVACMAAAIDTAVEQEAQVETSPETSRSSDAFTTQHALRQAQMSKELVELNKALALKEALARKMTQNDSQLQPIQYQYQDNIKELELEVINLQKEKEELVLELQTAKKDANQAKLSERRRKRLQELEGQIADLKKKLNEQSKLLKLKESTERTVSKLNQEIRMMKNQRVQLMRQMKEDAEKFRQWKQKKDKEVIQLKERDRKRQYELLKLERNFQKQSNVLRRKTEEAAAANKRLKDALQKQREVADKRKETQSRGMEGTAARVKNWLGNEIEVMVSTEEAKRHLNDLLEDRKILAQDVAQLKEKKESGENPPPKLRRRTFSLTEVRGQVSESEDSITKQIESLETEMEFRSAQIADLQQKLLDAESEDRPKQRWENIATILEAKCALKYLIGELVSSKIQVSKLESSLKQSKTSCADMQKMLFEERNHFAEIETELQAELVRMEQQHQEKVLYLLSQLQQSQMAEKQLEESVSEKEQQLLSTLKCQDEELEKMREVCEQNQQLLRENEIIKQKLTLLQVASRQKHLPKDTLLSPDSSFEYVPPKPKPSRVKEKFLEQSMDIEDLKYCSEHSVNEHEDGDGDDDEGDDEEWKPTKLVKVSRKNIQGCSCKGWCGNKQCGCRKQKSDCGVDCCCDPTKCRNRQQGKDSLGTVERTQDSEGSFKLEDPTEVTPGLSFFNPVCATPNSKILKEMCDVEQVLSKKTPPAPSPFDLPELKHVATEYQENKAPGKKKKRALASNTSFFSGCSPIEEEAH
Described as above. Type of assay: biochemical. Particulars: Fig. 2. How it is done: as §1

In another assay the target is T4, Mklp2 (Homo sapiens, UniProt O95235).
T4 sequence (O95235 1-890): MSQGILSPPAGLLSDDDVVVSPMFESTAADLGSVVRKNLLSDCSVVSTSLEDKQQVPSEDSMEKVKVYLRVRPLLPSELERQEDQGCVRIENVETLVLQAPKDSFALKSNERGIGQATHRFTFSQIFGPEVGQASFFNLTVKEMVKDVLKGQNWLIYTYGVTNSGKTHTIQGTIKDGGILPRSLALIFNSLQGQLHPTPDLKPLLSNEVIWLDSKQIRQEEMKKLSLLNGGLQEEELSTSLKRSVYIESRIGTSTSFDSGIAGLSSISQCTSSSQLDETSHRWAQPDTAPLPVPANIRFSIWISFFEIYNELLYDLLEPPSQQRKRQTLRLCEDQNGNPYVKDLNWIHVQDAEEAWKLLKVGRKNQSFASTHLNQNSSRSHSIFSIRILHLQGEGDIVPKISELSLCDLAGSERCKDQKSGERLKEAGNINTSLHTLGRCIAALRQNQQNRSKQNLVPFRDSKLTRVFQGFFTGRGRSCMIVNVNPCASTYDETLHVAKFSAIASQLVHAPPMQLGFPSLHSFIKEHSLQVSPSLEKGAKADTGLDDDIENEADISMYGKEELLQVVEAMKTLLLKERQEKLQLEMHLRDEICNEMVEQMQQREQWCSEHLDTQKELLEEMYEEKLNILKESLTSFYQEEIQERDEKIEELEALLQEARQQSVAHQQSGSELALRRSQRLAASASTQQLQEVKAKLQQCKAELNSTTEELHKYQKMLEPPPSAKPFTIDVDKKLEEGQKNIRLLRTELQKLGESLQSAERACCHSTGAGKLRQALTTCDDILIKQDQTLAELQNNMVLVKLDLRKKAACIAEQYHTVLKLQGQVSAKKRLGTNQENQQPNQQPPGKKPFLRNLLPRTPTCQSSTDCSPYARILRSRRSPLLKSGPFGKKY
The description is as above. Type of assay: biochemical. Particulars: Fig. 2. As to the method:
as §1

A further assay concerns the target T5, Eg5 (Homo sapiens, UniProt P52732).
T5 sequence (P52732 1-1056): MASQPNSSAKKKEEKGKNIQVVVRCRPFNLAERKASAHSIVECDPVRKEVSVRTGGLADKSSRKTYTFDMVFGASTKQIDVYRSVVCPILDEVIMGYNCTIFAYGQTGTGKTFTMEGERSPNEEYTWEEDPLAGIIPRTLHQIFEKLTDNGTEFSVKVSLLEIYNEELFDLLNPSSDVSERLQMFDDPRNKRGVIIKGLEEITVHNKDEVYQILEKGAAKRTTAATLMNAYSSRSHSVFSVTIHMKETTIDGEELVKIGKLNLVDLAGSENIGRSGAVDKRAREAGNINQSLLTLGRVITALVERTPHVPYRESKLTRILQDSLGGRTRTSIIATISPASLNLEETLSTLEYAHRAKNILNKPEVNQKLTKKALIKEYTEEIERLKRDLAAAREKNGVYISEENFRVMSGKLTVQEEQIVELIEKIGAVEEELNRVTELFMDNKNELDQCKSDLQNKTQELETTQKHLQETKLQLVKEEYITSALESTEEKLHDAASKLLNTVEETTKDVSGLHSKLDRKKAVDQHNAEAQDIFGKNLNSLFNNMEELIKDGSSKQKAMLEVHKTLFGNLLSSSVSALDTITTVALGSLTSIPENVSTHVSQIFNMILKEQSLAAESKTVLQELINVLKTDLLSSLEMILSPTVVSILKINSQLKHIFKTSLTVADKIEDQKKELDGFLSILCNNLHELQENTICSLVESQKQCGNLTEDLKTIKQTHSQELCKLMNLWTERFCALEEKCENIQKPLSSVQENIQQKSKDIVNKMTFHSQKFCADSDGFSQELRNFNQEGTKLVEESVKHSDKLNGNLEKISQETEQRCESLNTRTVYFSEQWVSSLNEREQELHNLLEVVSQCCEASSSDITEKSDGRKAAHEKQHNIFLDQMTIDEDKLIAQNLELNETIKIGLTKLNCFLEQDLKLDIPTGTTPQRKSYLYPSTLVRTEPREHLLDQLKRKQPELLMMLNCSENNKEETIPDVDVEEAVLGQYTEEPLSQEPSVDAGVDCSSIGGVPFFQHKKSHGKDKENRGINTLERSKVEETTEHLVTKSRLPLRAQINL
Described as above. The format is biochemical. Particulars: Fig. 2. How it is done:
as §1

For the compound `FC(F)(F)c1cc(Cl)c2ncc(-c3ccc(Cl)c(Cl)c3)nc2c1` [5-chloro-2-(3,4-dichlorophenyl)-7-(trifluoromethyl)quinoxaline], the pIC50 in assay [1] is roughly 4.40. Further, in assay [2], the pEC50 is roughly 4.30. The “effect on the tested cellular processes” value in assay [3] is given as “no observable effect”. The “binucleate phenotype in Hela S3 cells” value in the assay with Hela S3 cells is recorded as “induces a binucleate phenotype”. At Mklp1, the “effect on the in vitro ATPase activity of Mklp1” value is “no significant effect”. For the same compound, the “effect on the in vitro ATPase activity of Kif4” value on Kif4 is “no significant effect”. Moreover, the “effect on the in vitro ATPase activity of Mklp2” value on Mklp2 is “no significant effect”. The “effect on the in vitro ATPase activity of Eg5” value on Eg5 is reported as “no significant effect”.

What is called pIC50 is the negative decadic logarithm of the IC50, by convention in mol/L. Higher therefore signals a low IC50. For orientation: pEC50 means the negative decadic logarithm of the EC50, by convention in mol/L.
